Source: patent US20230085307A1, “PYRIDAZINONE COMPOUND AND HERBICIDE” (NISSAN CHEMICAL CORPORATION, priority 2019, published 2023)

Experiments:
[1] = system: late watergrass; assay: Test Example 1: herbicidal activity, application before weed generation under submerged conditions (Table 16, symbol A); type: in vivo, late watergrass (Echinochloa oryzicola); conditions: 320 g/ha applied herbicide
Outline: (§1)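 Emulsion formulation, water-diluted to set dose, was put onto the flooded surface (4 cm depth, alluvial soil) the same day weeds were sown and 2.5-leaf rice transplanted. After 3 weeks at 25-30 °C under glass, each species was rated 0 (≤5% kill) to 5 (≥90% kill).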

[2] = system: Japanese bulrush; assay: Test Example 1: herbicidal activity, application before weed generation under submerged conditions (Table 16, symbol B); type: in vivo, Japanese bulrush (Schoenoplectus juncoides); conditions: 320 g/ha applied herbicide
Outline: as §1

[3] = system: oval-leafed pondweed; assay: Test Example 1: herbicidal activity, application before weed generation under submerged conditions (Table 16, symbol C); type: in vivo, oval-leafed pondweed (Monochoria vaginalis); conditions: 320 g/ha applied herbicide
Outline: as §1

[4] = system: barnyard grass; assay: Test Example 3: herbicidal effect by foliage application, Wagner pot (Table 18, symbol H); type: in vivo, barnyard grass (Echinochloa crus-galli)
Outline: (§2)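 Plants were sown in alluvial soil held under 0.1–0.5 cm standing water and grown 14 days in a greenhouse at 25–30 °C. An emulsifiable formulation, water-diluted to the set dose, was then sprayed onto the foliage, and effects were scored three weeks later using previously defined criteria.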

[5] = system: Chinese sprangletop; assay: Test Example 3: herbicidal effect by foliage application, Wagner pot (Table 18, symbol D); type: in vivo, chinese sprangletop (Leptochloa chinensis)
Outline: as §2

[6] = system: rice flat sedge; assay: Test Example 3: herbicidal effect by foliage application, Wagner pot (Table 18, symbol E); type: in vivo, rice flat sedge (Cyperus iria)
Outline: as §2

[7] = system: southern crabgrass; assay: Test Example 5: herbicidal effect by foliage application, plastic box (Table 20, symbol F); type: in vivo, southern crabgrass (Digitaria ciliaris); conditions: foliage application, AAH 320 g/ha
Outline: (§3)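 Foliar spray test: emulsion formulation diluted in water to a set application rate, sprayed onto 14-day-old plants raised in diluvial soil at 25° C to 30° C under glass. Both herbicidal effect and crop effect rated visually three weeks later.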

[8] = system: green foxtail; assay: Test Example 5: herbicidal effect by foliage application, plastic box (Table 20, symbol G); type: in vivo, green foxtail (Setaria viridis); conditions: foliage application, AAH 320 g/ha
Outline: as §3

[9] = system: barnyard grass; assay: Test Example 5: herbicidal effect by foliage application, plastic box (Table 20, symbol H); type: in vivo, barnyard grass (Echinochloa crus-galli); conditions: foliage application, AAH 320 g/ha
Outline: as §3

[10] = system: wild oat; assay: Test Example 5: herbicidal effect by foliage application, plastic box (Table 20, symbol I); type: in vivo, wild oat (Avena fatua); conditions: foliage application, AAH 320 g/ha
Outline: as §3

[11] = system: blackgrass; assay: Test Example 5: herbicidal effect by foliage application, plastic box (Table 20, symbol J); type: in vivo, blackgrass (Alopecurus myosuroides); conditions: foliage application, AAH 320 g/ha
Outline: as §3

[12] = system: Italian ryegrass; assay: Test Example 5: herbicidal effect by foliage application, plastic box (Table 20, symbol K); type: in vivo, Italian ryegrass (Lolium multiflorum); conditions: foliage application, AAH 320 g/ha
Outline: as §3

[13] = system: windgrass; assay: Test Example 5: herbicidal effect by foliage application, plastic box (Table 20, symbol L); type: in vivo, windgrass (Apera spica-venti); conditions: foliage application, AAH 320 g/ha
Outline: as §3

[14] = system: velvetleaf; assay: Test Example 5: herbicidal effect by foliage application, plastic box (Table 20, symbol M); type: in vivo, velvetleaf (Abutilon theophrasti); conditions: foliage application, AAH 320 g/ha
Outline: as §3

[15] = system: redroot pigweed; assay: Test Example 5: herbicidal effect by foliage application, plastic box (Table 20, symbol N); type: in vivo, redroot pigweed (Amaranthus retroflexus); conditions: foliage application, AAH 320 g/ha
Outline: as §3

[16] = system: lambsquarters; assay: Test Example 5: herbicidal effect by foliage application, plastic box (Table 20, symbol O); type: in vivo, lambsquarters (Chenopodium album); conditions: foliage application, AAH 320 g/ha
Outline: as §3

[17] = system: chickweed; assay: Test Example 5: herbicidal effect by foliage application, plastic box (Table 20, symbol P); type: in vivo, common chickweed (Stellaria media); conditions: foliage application, AAH 320 g/ha
Outline: as §3

[18] = system: false cleavers; assay: Test Example 5: herbicidal effect by foliage application, plastic box (Table 20, symbol Q); type: in vivo, false cleavers (Galium spurium); conditions: foliage application, AAH 320 g/ha
Outline: as §3

[19] = system: persian speedwell; assay: Test Example 5: herbicidal effect by foliage application, plastic box (Table 20, symbol R); type: in vivo, Persian speedwell (Veronica persica); conditions: foliage application, AAH 320 g/ha
Outline: as §3

[20] = amount of applied herbicide 320 g/ha
[21] = evaluated three weeks after application

Question: With `Cc1ccccc1C(=O)Oc1c(C)nn(C)c(=O)c1-c1c(-c2ccc3c(c2)OCCO3)sc2ccccc12` [1-093] as the molecule, how does the “Herbicidal effect on A: late watergrass (grade 0-5)” value [1] read?
Answer: The value was 3 (Herbicidal rate of 40% or more and less than 70%).

Question: And the “Herbicidal effect on B: Japanese bulrush (grade 0-5)” value [2]?
Answer: Its value is 1 (Herbicidal rate of 5% or more and less than 20%).

Question: And the “Herbicidal effect on C: oval-leafed pondweed (grade 0-5)” value [3]?
Answer: Its value is 0 (Herbicidal rate of 5% or less (almost no effect)).

Question: What about the “herbicidal effect on H (barnyard grass), rating 0-5” value ([4]; 320 g/ha) of the same molecule?
Answer: Its value is 3 (Herbicidal rate of 40% or more and less than 70%).

Question: And the “herbicidal effect on D (Chinese sprangletop), rating 0-5” value ([5]; 320 g/ha)?
Answer: Its value is 0 (Herbicidal rate of 5% or less (almost no effect)).

Question: And the “herbicidal effect on E (rice flat sedge), rating 0-5” value ([6]; 320 g/ha)?
Answer: Its value is 5 (Herbicidal rate of 90% or more (almost completely withered)).

Question: What about the “F: southern crabgrass, herbicidal effect” value ([7]; three weeks after application) of the same molecule?
Answer: The value was 0 (Herbicidal rate of 5% or less (almost no effect)).

Question: And the “G: green foxtail, herbicidal effect” value ([8]; three weeks after application)?
Answer: The value was 0 (Herbicidal rate of 5% or less (almost no effect)).

Question: What about the “H: barnyard grass, herbicidal effect” value ([9]; three weeks after application) of the same molecule?
Answer: The value was 0 (Herbicidal rate of 5% or less (almost no effect)).

Question: What about the “I: wild oat, herbicidal effect” value ([10]; three weeks after application) of the same molecule?
Answer: The value was 0 (Herbicidal rate of 5% or less (almost no effect)).

Question: What about the “J: blackgrass, herbicidal effect” value ([11]; three weeks after application) of the same molecule?
Answer: The value was 0 (Herbicidal rate of 5% or less (almost no effect)).

Question: And the “K: Italian ryegrass, herbicidal effect” value ([12]; three weeks after application)?
Answer: The value was 0 (Herbicidal rate of 5% or less (almost no effect)).

Question: What about the “L: windgrass, herbicidal effect” value ([13]; three weeks after application) of the same molecule?
Answer: The value was 0 (Herbicidal rate of 5% or less (almost no effect)).

Question: What about the “M: velvetleaf, herbicidal effect” value ([14]; three weeks after application) of the same molecule?
Answer: The value was 5 (Herbicidal rate of 90% or more (almost completely withered)).

Question: And the “N: redroot pigweed, herbicidal effect” value ([15]; three weeks after application)?
Answer: Its value is 3 (Herbicidal rate of 40% or more and less than 70%).

Question: What about the “O: lambsquarters, herbicidal effect” value ([16]; three weeks after application) of the same molecule?
Answer: The value was 2 (Herbicidal rate of 20% or more and less than 40%).

Question: And the “P: chickweed, herbicidal effect” value ([17]; three weeks after application)?
Answer: The value was 1 (Herbicidal rate of 5% or more and less than 20%).

Question: And the “Q: false cleavers, herbicidal effect” value ([18]; three weeks after application)?
Answer: Its value is 0 (Herbicidal rate of 5% or less (almost no effect)).

Question: And the “R: persian speedwell, herbicidal effect” value ([19]; three weeks after application)?
Answer: The value was 4 (Herbicidal rate of 70% or more and less than 90%).

Question: How did the “Herbicidal effect on A: late watergrass (grade 0-5)” value [1] turn out when `C=CCOc1cccc(-c2sc3ccc(F)cc3c2-c2c(O)c(C)nn(C)c2=O)c1` [2-269] was run?
Answer: Its value is 3 (Herbicidal rate of 40% or more and less than 70%).

Question: What about the “Herbicidal effect on B: Japanese bulrush (grade 0-5)” value [2] of the same molecule?
Answer: Its value is 3 (Herbicidal rate of 40% or more and less than 70%).

Question: What about the “Herbicidal effect on C: oval-leafed pondweed (grade 0-5)” value [3] of the same molecule?
Answer: Its value is 3 (Herbicidal rate of 40% or more and less than 70%).

Question: What about the “herbicidal effect on H: barnyard grass” value [4, 20] of the same molecule?
Answer: Its value is 3 (Herbicidal rate of 40% or more and less than 70%).

Question: And the “herbicidal effect on D: Chinese sprangletop” value [5, 20]?
Answer: Its value is 0 (Herbicidal rate of 5% or less (almost no effect)).

Question: What about the “herbicidal effect on E: rice flat sedge” value [6, 20] of the same molecule?
Answer: The value was 3 (Herbicidal rate of 40% or more and less than 70%).

Question: What about the “F: southern crabgrass, herbicidal effect (criteria 0-5)” value [7, 21] of the same molecule?
Answer: The value was 0 (Herbicidal rate of 5% or less (almost no effect)).

Question: What about the “G: green foxtail, herbicidal effect (criteria 0-5)” value [8, 21] of the same molecule?
Answer: The value was 0 (Herbicidal rate of 5% or less (almost no effect)).

Question: What about the “H: barnyard grass, herbicidal effect (criteria 0-5)” value [9, 21] of the same molecule?
Answer: Its value is 0 (Herbicidal rate of 5% or less (almost no effect)).

Question: And the “I: wild oat, herbicidal effect (criteria 0-5)” value [10, 21]?
Answer: The value was 0 (Herbicidal rate of 5% or less (almost no effect)).

Question: And the “J: blackgrass, herbicidal effect (criteria 0-5)” value [11, 21]?
Answer: Its value is 0 (Herbicidal rate of 5% or less (almost no effect)).

Question: And the “K: Italian ryegrass, herbicidal effect (criteria 0-5)” value [12, 21]?
Answer: Its value is 0 (Herbicidal rate of 5% or less (almost no effect)).

Question: And the “L: windgrass, herbicidal effect (criteria 0-5)” value [13, 21]?
Answer: Its value is 0 (Herbicidal rate of 5% or less (almost no effect)).

Question: And the “M: velvetleaf, herbicidal effect (criteria 0-5)” value [14, 21]?
Answer: Its value is 0 (Herbicidal rate of 5% or less (almost no effect)).

Question: What about the “N: redroot pigweed, herbicidal effect (criteria 0-5)” value [15, 21] of the same molecule?
Answer: Its value is 0 (Herbicidal rate of 5% or less (almost no effect)).

Question: And the “O: lambsquarters, herbicidal effect (criteria 0-5)” value [16, 21]?
Answer: Its value is 0 (Herbicidal rate of 5% or less (almost no effect)).

Question: What about the “P: chickweed, herbicidal effect (criteria 0-5)” value [17, 21] of the same molecule?
Answer: Its value is 3 (Herbicidal rate of 40% or more and less than 70%).

Question: What about the “Q: false cleavers, herbicidal effect (criteria 0-5)” value [18, 21] of the same molecule?
Answer: Its value is 0 (Herbicidal rate of 5% or less (almost no effect)).

Question: And the “R: persian speedwell, herbicidal effect (criteria 0-5)” value [19, 21]?
Answer: The value was 1 (Herbicidal rate of 5% or more and less than 20%).
